Experimental data as given in patent US20150359854A1 (HUMAN MATRIX SCIENCES, LLC, priority 2012, published 2015).
Entries after “also recorded” stand apart in the source; their conditions may differ.

How the values were obtained:
[1] = tested on: human aortic SMCs (AoSMCs); assay: Immunocytochemistry and morphometry of elastic fibers in AoSMC cultures; format: cell-based; conditions: for effect of inhibitor on elastogenic effects of insulin (immunostained elastic fibers, [3H]-valine-labeled insoluble elastin): 2% FBS; for effect of inhibitor on elastogenic effects of IGF-1: 10 nmol/L IGF-1, parallel AoSMC cultures
Text: Human aortic SMCs (AoSMCs) were propagated from small fragments of aortic media collected from autopsy. Guidelines for the protection of human subjects of the US Department of Health and Human Services and of the Declaration of Helsinki were followed in obtaining tissues for this investigation. Cells migrating from the cultured explants of aortic media were routinely passaged (up to three times) via trypsinization using 0.2% trypsin-0.02% EDTA, and were maintained in DMEM supplemented with 5% FBS and 1% antibiotic-antimycotic mix. The second and third passages of cells that migrated from the original explants of aortic media were routinely probed with antibodies recognizing the SMC-specific α-actin to monitor the preservation of the SMC phenotype. All cells were initially plated at 100,000 cells per dish for immediate confluency so they would begin extracellular matrix production. The cell cultures committed to particular experiments were then transferred to DMEM containing either 2% FBS or to serum-free medium before initiation of particular treatments.
At the end of treatments, confluent cultures of AoSMCs were fixed in cold 100% methanol at −20° C. for 30 minutes, and blocked with 1% normal goat serum for 1 hour. The cultures were then incubated for 1 hour with 10 μg/mL polyclonal antibodies to tropoelastin and/or with 10 μg/mL monoclonal antibody to SMC-specific α-actin. All cultures were then incubated for another hour with the respective fluorescein-conjugated secondary antibodies (fluorescein-conjugated goat anti-rabbit or anti-mouse). Nuclei were counterstained with red-fluorescent propidium iodide or blue-fluorescent DAPI. The cultures were then mounted in ethanol and examined using a microscope (Eclipse E1000; Nikon Instruments, Inc., Melville, N.Y.) attached to a cooled CCD camera (Retiga EX; QImaging Corp., Vancouver, BC, Canada) and a computer-generated morphometric analysis system (Image-Pro Plus software; Media Cybernetics, Inc., Bethesda, Md.). In each analyzed group, 50 low-power fields from three separate cultures were analyzed, and the areas occupied by immunodetectable elastic fibers were expressed as a percentage of the entire analyzed field.

tropoelastin mRNA = assay: RT-PCR assay of tropoelastin mRNA; format: cell-based, human; conditions: 10 nmol/L insulin; for effect of inhibitor on insulin-induced up-regulation of tropoelastin mRNA: pretreated 30 minutes and maintained with inhibitor
Description: At the end of the treatments, total RNA was extracted from quadruplicate cultures in each experimental group using the RNEASY® (RNA isolation) Mini Kit. One microgram total RNA from each sample was added to one-step RT-PCR (One-Step RT-PCR Kit; Qiagen, Inc.). The reactions were set up in a total volume of 25 μL. The reverse transcription step was performed for elastin and 18S ribosomal RNA reactions at 50° C. for 30 minutes, followed by 15 minutes at 95° C. The elastin PCR reaction using sense primer 5′[…]-3′ (SEQ ID NO 1) and antisense primer 5′[…]3′ (SEQ ID NO 2). The products were analyzed using ethidium bromide staining and densitometry-based image analysis using an optical system (Gel Doc 1000; Bio-Rad Laboratories, Inc., Hercules, Calif.). The amount of tropoelastin mRNA was standardized relative to the amount of 18S ribosomal RNA and expressed as percentage of control values.

tropoelastin = assay: Metabolically labeled tropoelastin in cell extracts and conditioned media (secretion); format: cell-based, human; conditions: 1-hour preincubation with LY294002, 10 nmol/L insulin
Description: Cells were plated in 35-mm dishes at a density of 100,000 cells per dish and were grown to confluency. Two microcuries [3H]-valine per milliliter fresh medium supplemented with 2% FBS was added 2 hours before the indicated treatments. At the end of each experiment, the conditioned medium was collected and subjected to immunoprecipitation using anti-tropoelastin antibody. The cell layers were washed with PBS and incubated using radioimmunoprecipitation lysis buffer for 10 minutes on ice. After centrifugation, the supernatants were collected and subjected to immunoprecipitation using anti-tropoelastin antibody. […] Final results (counts per minute) reflecting the total amount of [3H]-valine-labeled insoluble elastin in individual cultures were normalized per their DNA contents (assessed using the Qiagen […] isolation) Tissue Kit) and expressed as percentage of control values. At the end of all treatments, cells from quadruplicate cultures in each experimental group were lysed using NP40 cell lysis buffer (Invitrogen Corp.). Thirty micrograms of protein extracts from each sample was suspended in standard sample buffer, resolved on 4% to 12% gradient SDS-PAGE gels, transferred to nitrocellulose membranes, and subjected to Western blotting using antibodies. At the end of indicated treatments, the cultured cells were lysed as described, and 300 μL aliquots of cell extracts containing […] were incubated at 4° C. for 3 hours with the aliquots of protein G bound DYNABEADS® (Invitrogen Corp.) that were conjugated with either rabbit polyclonal anti-tropoelastin, goat polyclonal anti-Glut10, or rabbit polyclonal anti-S-Gal antibodies. The beads carrying the final immunoprecipitation products were then washed with PBS, resuspended in sample buffer, and boiled for 5 minutes. The released proteins were then resolved on SDS-PAGE gel and subjected to Western blotting using indicated antibodies.

S-Gal/EBP = assay: Association of tropoelastin with S-Gal/EBP chaperone (Western blot, co-immunoprecipitation, double immunostaining); format: cell-based, human
Description: Cultures fixed for 30 minutes in cold 100% methanol were then blocked with 1% glycine for 15 minutes, followed by 2% bovine serum albumin with 0.1% Triton X-100 for another hour at room temperature. They were finally exposed for 1 hour to the mixture of 5 μg/mL polyclonal anti-S-Gal/EBP and 5 μg/mL monoclonal anti-tropoelastin antibodies. All cultures were then incubated for another hour with the mixture of fluorescein-conjugated and rhodamine-conjugated secondary antibodies. Nuclei were counterstained with DAPI. At the end of all treatments, cells from quadruplicate cultures in each experimental group were lysed using NP40 cell lysis buffer (Invitrogen Corp.). Thirty micrograms of protein extracts from each sample was suspended in standard sample buffer, resolved on 4% to 12% gradient SDS-PAGE gels, transferred to nitrocellulose membranes, and subjected to Western blotting using antibodies. At the end of indicated treatments, the cultured cells were lysed as described, and 300 μL aliquots of cell extracts containing […] were incubated at 4° C. for 3 hours with the aliquots of protein G bound DYNABEADS® (Invitrogen Corp.) that were conjugated with either rabbit polyclonal anti-tropoelastin, goat polyclonal anti-Glut10, or rabbit polyclonal anti-S-Gal antibodies. The beads carrying the final immunoprecipitation products were then washed with PBS, resuspended in sample buffer, and boiled for 5 minutes. The released proteins were then resolved on SDS-PAGE gel and subjected to Western blotting using indicated antibodies.

FoxO1 = FoxO1 binding to elastin gene promoter DNA probe (FRE) on DYNABEADS; format: cell-based, human; conditions: AoSMCs treated 30 minutes with 10 nmol/L insulin, or preincubated with LY294002
Description: Cells were then scraped, and their nuclear extracts were pre-pared using an isolation kit (Active Motif, Inc.). […] The equal molar amounts of both single-stranded DNA oligonucleotides were annealed in Tris-EDTA buffer (10 mmol/L Tris-HCl, 1 mmol/L EDTA (pH 8.0)) to form the double-stranded DNA probe. […] All preparations were subsequently incubated for 2 hours in 200 μL binding buffer (50 mmol/L KCl, 10% glycerol, 20 mmol/L HEPES (pH 7.9), 1 mmol/L MgCl2, 1 mmol/L DTT, 0.1 μg poly(DI-DC) (polydeoxyinosinic-deoxycytidylic), and proteinase inhibitors). After binding, the beads were washed four times in the same binding buffer, without poly(DI-DC). The bound proteins were resolved using 8% SDS-PAGE and probed using Western blotting with the anti-FoxO1 monoclonal antibody.

[2] = 24-hour AoSMC cultures, 10 nmol/L insulin
[3] = 10 nmol/L IGF-1, 24-hour AoSMC cultures

CC(C)(C)c1cc(C=C(C#N)C#N)cc(Br)c1O [AG1024]
effect of inhibitor on elastogenic effects of insulin (immunostained elastic fibers, [3H]-valine-labeled insoluble elastin) [1, 2]: eliminated the elastogenic effects | effect of inhibitor on insulin-induced up-regulation of tropoelastin mRNA (tropoelastin mRNA): abrogated

COc1ccc(CNc2nc(N(CCO)CCO)nc3c2ncn3C(C)C)cc1 [CVT313]
effect of cdk-2 inhibition on elastogenic effect of IGF-1 [1, 3]: abolished the final elastogenic effect | effect of cdk-2 inhibition on elastogenic effect of insulin ([1]; 10 nmol/L insulin, 24-hour AoSMC cultures): did not diminish the elastogenic effect; also recorded: still exhibited heightened deposition of elastic fibers

O=c1cc(N2CCOCC2)oc2c(-c3ccccc3)cccc12 [LY294002]
effect of PI3K inhibition on insulin-induced changes in tropoelastin levels (tropoelastin): could not be observed | effect of inhibitor on elastogenic effects of IGF-1 [1]: abolished the elastogenic effects; also recorded: also eliminated | effect of inhibitor on elastogenic effects of insulin (immunostained elastic fibers, [3H]-valine-labeled insoluble elastin) [1, 2]: eliminated the elastogenic effects | effect of inhibitor on insulin-induced up-regulation of tropoelastin mRNA (tropoelastin mRNA): abrogated | insulin-induced tropoelastin/S-Gal/EBP co-localization in cells preincubated with inhibitor (S-Gal/EBP; LY294002 preincubation (data not shown)): could not induce such tropoelastin/S-Gal/EBP co-localization | effect of PI3K inhibitor on insulin-induced S-Gal/EBP coimmunoprecipitation (S-Gal/EBP; pretreated 30 minutes with PI3K inhibitor): could not be induced; also recorded: could not induce the same effect | binding of FoxO1 from nuclear extracts to elastin promoter FRE DNA probe (FoxO1): bound abundant FoxO1 proteins

OC[C@H]1O[C@@H](n2cnc3cc(Cl)c(Cl)cc32)[C@H](O)[C@@H]1O [dichloro-benzimidazole riboside, dichlorobenzimidazole riboside]
effect of transcription inhibitor on insulin-induced up-regulation of tropoelastin mRNA (tropoelastin mRNA; pretreatment with 50 μmol/L inhibitor): completely abolished

COc1cc([C@@H]2c3cc4c(cc3[C@H](O)[C@H]3COC(=O)[C@@H]23)OCO4)cc(OC)c1OC [picropodophyllin]
effect of inhibitor on elastogenic effects of IGF-1 [1]: also eliminated | effect of inhibitor on insulin-induced up-regulation of tropoelastin mRNA (tropoelastin mRNA): did not inhibit

IGF-1
elastogenic effect of IGF-1 [1, 3]: elastogenic effects
